Test results published in patent publication US10053485B2, “Cytotoxic agents that preferentially target leukemia inhibitory factor (LIF) for the treatment of malignancies and as new contraceptive agents” (Evestra, Inc., priority 2015, dated 2018).

Key:
Assay type in all cases: cell-based
[1] = system: SNB-19; assay: NCI-60 screen, CNS Cancer panel; conditions: Homo sapiens, SNB-19, 48 h
[2] = system: SK-OV-3; assay: NCI-60 screen, Ovarian Cancer panel; conditions: Homo sapiens, SK-OV-3, 48 h
[3] = system: LNCaP (AR+ Prostate); assay: Short term (72 h) cytotoxicity assay
[4] = system: SK-MEL-28; assay: NCI-60 screen, Melanoma panel; conditions: Homo sapiens, SK-MEL-28, 48 h
[5] = system: SF-295; assay: NCI-60 screen, CNS Cancer panel; conditions: Homo sapiens, SF-295, 48 h
[6] = system: SK-MEL-2; assay: NCI-60 screen, Melanoma panel; conditions: Homo sapiens, SK-MEL-2, 48 h
[7] = system: CCRF-CEM; assay: NCI-60 screen, Leukemia panel; conditions: Homo sapiens, 48 h
[8] = system: T47D (ER+ PR+ Breast Cancer); assay: Short term (72 h) cytotoxicity assay; conditions: Homo sapiens
[9] = system: U251; assay: NCI-60 screen, CNS Cancer panel; conditions: Homo sapiens, U-251, 48 h
[10] = system: HL-60(TB); assay: NCI-60 screen, Leukemia panel; conditions: Homo sapiens, HL-60, 48 h
[11] = system: OVCAR-3; assay: NCI-60 screen, Ovarian Cancer panel; conditions: Homo sapiens, OVCAR-3, 48 h
Experimental: EC 330 was also tested using the NCI-60 Screening Methodology. The human tumor cell lines of the cancer screening panel are grown in RPMI 1640 medium containing 5% fetal bovine serum and 2 mM L-glutamine. For a typical screening experiment, cells are inoculated into 96 well microtiter plates in 100 μL at plating densities ranging from 5,000 to 40,000 cells/well depending on the doubling time of individual cell lines. After cell inoculation, the microtiter plates are incubated at 37° C., 5% CO2, 95% air and 100% relative humidity for 24 h prior to addition of experimental drugs. […]
Following drug addition, the plates are incubated for an additional 48 h at 37° C., 5% CO2, 95% air, and 100% relative humidity. […] Bound stain is subsequently solubilized with 10 mM trizma base, and the absorbance is read on an automated plate reader at a wavelength of 515 nm. […] Using the seven absorbance measurements [time zero, (Tz), control growth, (C), and test growth in the presence of drug at the five concentration levels (Ti)], the percentage growth is calculated at each of the drug concentrations levels. Percentage growth inhibition is calculated as: [(Ti−Tz)/(C−Tz)]×100 for concentrations for which Ti>/=Tz [(Ti−Tz)/Tz]×100 for concentrations for which Ti<Tz.
Three dose response parameters are calculated for each experimental agent. […]

[12] = system: human umbilical vein endothelial cells (HUVEC); assay: Matrigel in vitro HUVECs tube formation assay (angiogenesis)
Experimental: Matrigel in vitro HUVECs tube formation assay: The tube formation assay was performed using 12-well plate coated with 100 μL Matrigel basement membrane matrix (BD Bioscience) per well and polymerized at 37° C. for 30 min. Human umbilical vascular endothelial cells (HUVECs) suspended in M199 medium containing 2% FBS were plated on the Matrigel at a density of 2×10^5 cells/well. […] After 8 h, the Matrigel-induced morphological changes were photographed and the extent of capillary tube formation was evaluated by measuring the total tube length per field.

[13] = system: M14; assay: NCI-60 screen, Melanoma panel; conditions: Homo sapiens, M14, 48 h
[14] = system: NCI-H23; assay: NCI-60 screen, Non-Small Cell Lung Cancer panel; conditions: Homo sapiens, NCI-H23, 48 h
[15] = read-out: GI50 (log10GI50) (converted)
[16] = read-out: LC50 (log10LC50) (converted)

`C#CC(F)(F)[C@]1(O)CCC2C3CCC4=CC(=O)CCC4=C3C(c3ccc(C4CC4)cc3)C[C@@]21C` (stereo partly drawn) [EC330, 17α-(1,1-difluoro-2-propyn-1-yl)-17β-hydroxy-11β-[4-p-(cyclopropyl)phenyl]estra-4,9-dien-3-one] was tested, and the GI50 [1, 15] was 3800 nM, the CC50 [1, 16] was over 100000 nM and the GI50 [2, 15] was 117 nM. The CC50 [2, 16] was 661 nM, the IC50 [3] was 53 nM and the GI50 [4, 15] was 1780 nM. For the same compound, the CC50 [4, 16] was 7760 nM, the GI50 [5, 15] was under 10 nM and the CC50 [5, 16] was under 10 nM. The GI50 [6, 15] was 2140 nM, the CC50 [6, 16] was 30200 nM and the GI50 [7, 15] was under 10 nM. It also gave a CC50 [7, 16] of under 10 nM, an IC50 [8] of 80 nM and a GI50 [9, 15] of 151 nM. The CC50 [9, 16] was 5370 nM, the GI50 [10, 15] was under 10 nM and the CC50 [10, 16] was under 10 nM. The CC50 [11, 16] was 933 nM, the GI50 ([11]; SRB, read-out: GI50 (log10GI50) (converted)) was 12.9 nM and the tube formation ([12]; 1 μM concentration, all measured time points) was “complete abrogation”. For the same compound, the “angiogenesis in vitro (tube formation assay)” value ([12]; FIG. 2) was “inhibited”, the GI50 [13, 15] was 2750 nM and the CC50 [13, 16] was over 100000 nM. For the same compound, the GI50 [14, 15] was under 10 nM and the CC50 [14, 16] was over 100000 nM.
